Reference: paper PMC6100056, “Antitumor Effects and Delivery Profiles of Menahydroquinone-4 Prodrugs with Ionic or Nonionic Promoiety to Hepatocellular Carcinoma Cells” (Molecules : A Journal of Synthetic Chemistry and Natural …, 2018)
Where a name gives a salt, the structure may show the parent alone.

Tests used:
[1] = tested on: PLC/PRF/5 cells; assay: Cell viability assay (Cell Titer-Glo); format: cell-based; settings: for IC50: Homo sapiens, 95% confidence interval in square brackets; for IC50 lower than that of MK-4: 96 h of treatment
Protocol: (§1) To assess the effects of MKH-ester prodrugs on HCC cell proliferation, DCP-positive (PLC/PRF/5) and DCP-negative (SK-Hep-1) HCC cell lines were treated with various concentrations of MKH-ACT, MKH-DMG, MKH-SUC or MK-4 up to 96 h, and cell viability was determined.
(§2) Cell viability was determined using a previously reported method. Briefly, PLC/PRF/5 and SK-Hep-1 cells were plated at 5.0 × 10^3 cells/well in 96-well plates and allowed to attach for 48 h. MK-4 and MKH-ACT were dissolved in 99.5% ethanol. MKH-SUC was dissolved in DMSO. MKH-DMG was dissolved in sterilized water. Stock solutions of each drug (50 mM) were diluted to the intended final concentrations with medium. Cells were exposed to MK-4, MKH-ACT, MKH-DMG or MKH-SUC for up to 96 h, and cell viability was evaluated using the Cell Titer-Glo Luminescent Cell Viability Assay (Promega, Madison, WI, USA) according to the manufacturer’s instructions. IC50 values were determined by a log [drug] vs. normalized response-variable slope analysis of GraphPad Prism, version 6.0 (GraphPad Software, San Diego, CA, USA).

[2] = tested on: SK-Hep-1 cells; assay: Cell viability assay (Cell Titer-Glo); format: cell-based; settings: for IC50 lower than that of MK-4: 96 h of treatment; for IC50: Homo sapiens, 95% confidence interval in square brackets
Protocol: as §1, §2

[3] = design: method as in PMID 17537874, PMID 10077437; settings: cited from earlier work
[4] = Hydrolysis of MKH-SUC in isotonic buffer solution (PBS); format: physicochemical; settings: in PBS at 37 °C; read-out: Half-life toward MKH (converted)
Protocol: Next, a time course of MKH delivery with the MKH derivatives, including MK-4, was investigated. The AUC0–24h values for MKO after treatment of MKH-SUC was the highest among the three MKH-derivatives in both HCC cell lines, and the AUC0–24h values for MKH after treatment of MKH-SUC were also the highest (Table 3). […] However, the difference in MKH delivery was not higher than that of the regeneration to MKH by the esterase of HCC (Figure 4 and Table 2). […] These differences may result from the actual amount (nearly equal to Vmax values) of uptake and the regeneration step between MKH-ACT and MKH-DMG, and the rates of transportation/enzymatic reactions to the substances (Km) of MKH-ACT and MKH-DMG may be sufficient to reach Vmax under the test conditions shown in Figure 5. […] Regarding the decrease of MK-4 after 24 h treatment of MKH-SUC in both cells (Figure 5D,H), this phenomenon may be explained by the disposition of hydrolysis of MKH-SUC in an isotonic buffer solution. […] This is because, at 24 h, the delivery of MKH, which acts as a cofactor of GGCX, remained sufficient, but excess MKH that would be oxidized to MK-4 may be reduced with the elimination of MKH-SUC.

| SMILES | melting point [°C] | IC50 ([1]; 72 h) [µM] | IC50 ([1]; 96 h) [µM] | IC50 lower than that of MK-4 [2] [fold] | IC50 ([2]; SK-HEP1, 72 h) [µM] | IC50 ([2]; SK-HEP1, 96 h) [µM] | Hydrolysis in human plasma [3] | IC50 lower than that of MK-4 [1] [fold] | IC50 ([1]; 48 h) [µM] | IC50 ([2]; SK-HEP1, 48 h) [µM] | half-life [4] [h] |
| --- | --- | --- | --- | --- | --- | --- | --- | --- | --- | --- | --- |
| CC(=O)Oc1c(C)c(C/C=C(\C)CC/C=C(\C)CC/C=C(\C)CCC=C(C)C)c(OC(C)=O)c2ccccc12 [MKH-ACT, Menahydroquinone-4 1,4-bis acetate] | 39 to 41 | 152 | 114 | 1.23 | 71.6 | 71.9 |  |  |  |  |  |
| CC(C)=CCC/C(C)=C/CC/C(C)=C/CC/C(C)=C/Cc1c(C)c(OC(=O)CN(C)C)c2ccccc2c1OC(=O)CN(C)C [MKH-DMG, Menahydroquinone-4 1,4-bis-N,N-dimethylglycinate hydrochloride] |  | 33.4 | 27.4 | 3.61 | 32.5 | 24.4 | not accelerated | 3.17 | 63 | 71.3 |  |
| CC(C)=CCC/C(C)=C/CC/C(C)=C/CC/C(C)=C/Cc1c(C)c(OC(=O)CCC(=O)O)c2ccccc2c1OC(=O)CCC(=O)O [MKH-SUC, Menahydroquinone-4 1,4-bis hemisuccinate] |  | 26.6 | 20.1 | 12.3 | 15.8 | 7.16 |  | 4.32 | 48.9 | 78.1 | ~25 |
